We go through 29 molecules from patent publication US11267825B2 (AICURIS GMBH & CO. KG, priority 2017, dated 2022).

One experiment deals with HBV. In words: Determination of HBV DNA from the supernatants of HepAD38 cells (anti-HBV activity). It counts as cell-based, hepatitis B virus. Conditions: Hepatitis B virus, 144 h; HBV DNA in HepAD38 supernatant at day 6; read-out: Cell Activity (EC50). Summed up:
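HepAD38 cells (60,000/well) were treated with half-log compound dilutions in tetracycline-free medium to induce HBV production. On day 6, HBV DNA was purified from filtered supernatant and quantified by real-time PCR against plasmid standards. EC50 values came from non-linear regression of relative copy numbers, typically from three experiments in triplicate.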

For the next experiment, the target named is HBV core protein (UniProt P03146). Format: biochemical. Conditions: read-out: Assembly Activity (IC50); BODIPY-FL labelled core protein, assembly started with NaCl, read after 6 min. In outline:
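Fluorescence-quenching assembly assay using E. coli-expressed core protein 1–149 plus Cys150, labelled with BODIPY-FL maleimide, at 1.0–2.0 μM in 50 mM HEPES pH 7.5, 0.5% DMSO. Assembly started with NaCl to […]; fluorescence (ex 477/em 525 nm) read after 6 min. EC50 by non-linear regression, 8-point 0.5-log dilutions.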

Chain of HBV core protein (P03146 whole entry, looked up): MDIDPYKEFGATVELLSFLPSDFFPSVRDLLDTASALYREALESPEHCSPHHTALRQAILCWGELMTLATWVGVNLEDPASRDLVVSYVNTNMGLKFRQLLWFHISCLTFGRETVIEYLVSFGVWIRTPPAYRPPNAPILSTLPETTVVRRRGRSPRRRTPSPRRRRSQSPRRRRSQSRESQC

The EC50 is the concentration at which the effect is half-maximal. Broadly, the IC50 is the midpoint of a concentration-inhibition curve. Regarding `CC1Cc2nc(N)sc2CN1C(=O)c1cc2ccccc2[nH]1` (stereo not shown) [Example 107, 5-(1H-indole-2-carbonyl)-6-methyl-4H,5H,6H,7H-[1,3]thiazolo[5,4-c]pyridin-2-amine], the EC50 with HBV is under 1 µM. Further, the IC50 on HBV core protein was under 5 µM.

On to `O=C(c1cc2c(F)c(F)c(F)cc2[nH]1)N1CCc2nc(NCC3CCOC3)sc2C1` (stereo not shown) [Example 105, 5-(4,5,6-trifluoro-1H-indole-2-carbonyl)-N-[(oxolan-3-yl)methyl]-4H,5H,6H,7H-[1,3]thiazolo[5,4-c]pyridin-2-amine], for which the EC50 in the experiment on HBV is under 1 µM. In addition, at HBV core protein, the IC50 is under 5 µM.

Regarding `CC(F)(F)c1cccc2[nH]c(C(=O)N3CCc4nc(NCC5(O)CCC5)sc4C3)cc12` [Example 372, 1-[({5-[4-(1,1-difluoroethyl)-1H-indole-2-carbonyl]-4H,5H,6H,7H-[1,3]thiazolo[5,4-c]pyridin-2-yl}amino)methyl]cyclobutan-1-ol], the EC50 in the experiment on HBV was 1 to 10 µM. In addition, the IC50 at HBV core protein was under 5 µM.

For `O=C(c1cc2ccccc2[nH]1)N1CCc2nc(N[C@H]3COCC[C@@H]3O)sc2C1` (racemic) [Example 339, (±)-3-{[5-(1H-indole-2-carbonyl)-4H,5H,6H,7H-[1,3]thiazolo[5,4-c]pyridin-2-yl]amino}oxan-4-ol], the EC50 in the experiment on HBV is under 1 µM. Moreover, the IC50 at HBV core protein fell in the range of 5 to 10 µM.

For `CS(=O)(=O)CCNc1nc2c(s1)CN(C(=O)c1cc3ccccc3[nH]1)CC2` [Example 89, 5-(1H-indole-2-carbonyl)-N-(2-methanesulfonylethyl)-4H,5H,6H,7H-[1,3]thiazolo[5,4-c]pyridin-2-amine], in the experiment with HBV, the EC50 was under 1 µM. Further, at HBV core protein, the IC50 is under 5 µM.

Turning to `CCc1cccc2[nH]c(C(=O)N3CCc4nc(NC5(CO)CCC5)sc4C3)cc12` [Example 300, (1-{[5-(4-ethyl-1H-indole-2-carbonyl)-4H,5H,6H,7H-[1,3]thiazolo[5,4-c]pyridin-2-yl]amino}cyclobutyl)methanol], the EC50 in the experiment on HBV is under 1 µM. Besides, the IC50 at HBV core protein is under 5 µM.

On to `O=C(c1cc2cc(F)c(Cl)cc2[nH]1)N1CCc2nc(NCC3(CO)CC3)sc2C1` [Example 234, [1-({[5-(6-chloro-5-fluoro-1H-indole-2-carbonyl)-4H,5H,6H,7H-[1,3]thiazolo[5,4-c]pyridin-2-yl]amino}methyl)cyclopropyl]methanol], for which, in the experiment with HBV, the EC50 is under 1 µM. Also, the IC50 on HBV core protein was under 5 µM.

Regarding `Nc1nc2c(s1)CN(C(=O)c1cc3c(Br)c(F)ccc3[nH]1)CC2` [Example 130, 5-(4-bromo-5-fluoro-1H-indole-2-carbonyl)-4H,5H,6H,7H-[1,3]thiazolo[5,4-c]pyridin-2-amine], in the experiment on HBV, the EC50 was 1 to 10 µM. Besides, on HBV core protein, the IC50 is under 100 µM.

Consider `CC(C)c1cccc2[nH]c(C(=O)N3CCc4nc(N)sc4C3)cc12` [Example 12, 5-[4-(propan-2-yl)-1H-indole-2-carbonyl]-4H,5H,6H,7H-[1,3]thiazolo[5,4-c]pyridin-2-amine], for which the EC50 in the experiment on HBV was under 1 µM. In addition, the IC50 at HBV core protein was under 5 µM.

As to `O=C(c1cc2ccccc2[nH]1)N1CCc2nc(NCC3CC3)sc2C1` [Example 96, N-(cyclopropylmethyl)-5-(1H-indole-2-carbonyl)-4H,5H,6H,7H-[1,3]thiazolo[5,4-c]pyridin-2-amine], in the experiment with HBV, the EC50 was under 1 µM. Besides, the IC50 on HBV core protein is under 5 µM.

Regarding `CCc1cc(F)cc2[nH]c(C(=O)N3CCc4nc(NCC5(CO)CC5)sc4C3)cc12` [Example 248, [1-({[5-(4-ethyl-6-fluoro-1H-indole-2-carbonyl)-4H,5H,6H,7H-[1,3]thiazolo[5,4-c]pyridin-2-yl]amino}methyl)cyclopropyl]methanol], the EC50 in the experiment with HBV was under 1 µM. Further, the IC50 on HBV core protein was under 5 µM.

Consider `N#Cc1cccc2[nH]c(C(=O)N3CCc4nc(N)sc4C3)cc12` [Example 83, 5-(4-cyano-1H-indole-2-carbonyl)-4H,5H,6H,7H-[1,3]thiazolo[5,4-c]pyridin-2-amine], for which the EC50 in the experiment on HBV was 1 to 10 µM. In addition, the IC50 at HBV core protein is under 5 µM.

`O=C(CNc1nc2c(s1)CN(C(=O)c1cc3ccccc3[nH]1)CC2)N1CCCCC1` [Example 233, 2-{[5-(1H-indole-2-carbonyl)-4H,5H,6H,7H-[1,3]thiazolo[5,4-c]pyridin-2-yl]amino}-1-(piperidin-1-yl)ethan-1-one]: the EC50 in the experiment with HBV is 1 to 10 µM. The IC50 at HBV core protein is under 100 µM.

Regarding `CC1(CNc2nc3c(s2)CN(C(=O)c2cc4ccccc4[nH]2)CC3)CCOC1` (stereo not shown) [Example 49, 5-(1H-indole-2-carbonyl)-N-[(3-methyloxolan-3-yl)methyl]-4H,5H,6H,7H-[1,3]thiazolo[5,4-c]pyridin-2-amine], in the experiment on HBV, the EC50 is under 1 µM. For the same molecule, the IC50 at HBV core protein was under 5 µM.

Regarding `Cc1ccc(F)c2[nH]c(C(=O)N3CCc4nc(N)sc4C3)cc12` [Example 86, 5-(7-fluoro-4-methyl-1H-indole-2-carbonyl)-4H,5H,6H,7H-[1,3]thiazolo[5,4-c]pyridin-2-amine], in the experiment on HBV, the EC50 is under 1 µM. The IC50 on HBV core protein was under 5 µM.

As to `O=C(c1cc2ccccc2[nH]1)N1CCc2nc(NCC(F)(F)CO)sc2C1` [Example 225, 2,2-difluoro-3-{[5-(1H-indole-2-carbonyl)-4H,5H,6H,7H-[1,3]thiazolo[5,4-c]pyridin-2-yl]amino}propan-1-ol], the EC50 in the experiment with HBV is under 1 µM. The IC50 on HBV core protein is under 5 µM.

As to `O=C(c1cc2c(F)cc(F)cc2[nH]1)N1CCc2nc(OCCO)sc2C1` [Example 102, 2-{[5-(4,6-difluoro-1H-indole-2-carbonyl)-4H,5H,6H,7H-[1,3]thiazolo[5,4-c]pyridin-2-yl]oxy}ethan-1-ol], the EC50 in the experiment with HBV lay in the range of 1 to 10 µM. Further, the IC50 at HBV core protein is 5 to 10 µM.

`O=C(c1cc2ccc(Br)cc2[nH]1)N1CCc2nc(NCC3CCOC3)sc2C1` (stereo not shown) [Example 113, 5-(6-bromo-1H-indole-2-carbonyl)-N-[(oxolan-3-yl)methyl]-4H,5H,6H,7H-[1,3]thiazolo[5,4-c]pyridin-2-amine]: the EC50 with HBV is under 1 µM. Also, at HBV core protein, the IC50 is under 5 µM.

`O=C(c1cc2ccccc2[nH]1)N1CCc2nc(NC3COC3)sc2C1` [Example 127, 5-(1H-indole-2-carbonyl)-N-(oxetan-3-yl)-4H,5H,6H,7H-[1,3]thiazolo[5,4-c]pyridin-2-amine]: in the experiment on HBV, the EC50 was under 1 µM. In addition, on HBV core protein, the IC50 was under 5 µM.

With `O=C(c1cc2ccccc2[nH]1)N1CCc2nc(N[C@H]3CC[C@@H](O)CC3)sc2C1` [Example 45, (1s,4s)-4-{[5-(1H-indole-2-carbonyl)-4H,5H,6H,7H-[1,3]thiazolo[5,4-c]pyridin-2-yl]amino}cyclohexan-1-ol], the EC50 in the experiment with HBV was under 1 µM. Further, the IC50 on HBV core protein was under 5 µM.

Turning to `O=C(c1cc2c(Cl)cc(F)cc2[nH]1)N1CCc2nc(NC3(CO)CCC3)sc2C1` [Example 223, (1-{[5-(4-chloro-6-fluoro-1H-indole-2-carbonyl)-4H,5H,6H,7H-[1,3]thiazolo[5,4-c]pyridin-2-yl]amino}cyclobutyl)methanol], the EC50 with HBV was under 1 µM. The IC50 at HBV core protein was under 5 µM.

Take `Cc1cc(F)cc2[nH]c(C(=O)N3CCc4nc(N[C@H]5CC[C@@H](O)CC5)sc4C3)cc12` [Example 303, (1s,4s)-4-{[5-(6-fluoro-4-methyl-1H-indole-2-carbonyl)-4H,5H,6H,7H-[1,3]thiazolo[5,4-c]pyridin-2-yl]amino}cyclohexan-1-ol]: in the experiment on HBV, the EC50 was under 1 µM. The IC50 on HBV core protein is under 5 µM.

As to `Cc1cccc2[nH]c(C(=O)N3CCc4nc(NCC5(O)CCC5)sc4C3)cc12` [Example 370, 1-({[5-(4-methyl-1H-indole-2-carbonyl)-4H,5H,6H,7H-[1,3]thiazolo[5,4-c]pyridin-2-yl]amino}methyl)cyclobutan-1-ol], the EC50 in the experiment with HBV was under 1 µM. Further, the IC50 at HBV core protein was under 5 µM.

`COc1cccc2cc(C(=O)N3CCc4nc(N)sc4C3)[nH]c12` [Example 153, 5-(7-methoxy-1H-indole-2-carbonyl)-4H,5H,6H,7H-[1,3]thiazolo[5,4-c]pyridin-2-amine]: in the experiment with HBV, the EC50 was under 100 µM. Also, the IC50 on HBV core protein was under 100 µM.

As to `Nc1nc2c(s1)CN(C(=O)c1cc3c(F)cc(F)c(F)c3[nH]1)CC2` [Example 84, 5-(4,6,7-trifluoro-1H-indole-2-carbonyl)-4H,5H,6H,7H-[1,3]thiazolo[5,4-c]pyridin-2-amine], the EC50 with HBV was under 1 µM. Also, on HBV core protein, the IC50 was under 5 µM.

As for `CCNCc1nc2c(s1)CN(C(=O)c1cc3ccccc3[nH]1)CC2` [Example 32, Ethyl({[5-(1H-indole-2-carbonyl)-4H,5H,6H,7H-[1,3]thiazolo[5,4-c]pyridin-2-yl]methyl})amine], in the experiment with HBV, the EC50 is under 100 µM. In addition, the IC50 on HBV core protein is under 100 µM.

For the molecule `O=C1CCC(CNc2nc3c(s2)CN(C(=O)c2cc4ccccc4[nH]2)CC3)N1` (stereo not shown) [Example 404, 5-({[5-(1H-indole-2-carbonyl)-4H,5H,6H,7H-[1,3]thiazolo[5,4-c]pyridin-2-yl]amino}methyl)pyrrolidin-2-one], the EC50 in the experiment on HBV was under 1 µM. Further, the IC50 at HBV core protein was under 5 µM.

Turning to `CC(C)(C)NC(=O)Nc1nc2c(s1)CN(C(=O)c1cc3ccccc3[nH]1)CC2` [Example 264, 3-tert-butyl-1-[5-(1H-indole-2-carbonyl)-4H,5H,6H,7H-[1,3]thiazolo[5,4-c]pyridin-2-yl]urea], the EC50 with HBV was under 1 µM. For the same molecule, on HBV core protein, the IC50 was in the range of 5 to 10 µM.

Take `C=Cc1cccc2[nH]c(C(=O)N3CCc4nc(N)sc4C3)cc12` [Example 13, 5-(4-ethenyl-1H-indole-2-carbonyl)-4H,5H,6H,7H-[1,3]thiazolo[5,4-c]pyridin-2-amine]: the EC50 with HBV lay in the range of 1 to 10 µM. The half-maximal inhibitory concentration (IC50) at HBV core protein lay in the range of 5 to 10 µM.
